The source of these data is patent US20260240765A1, “RIFAMYCIN-QUINOLIZINONE COUPLED MOLECULE OINTMENT AND METHOD FOR PREPARING SAME” (Tennor Therapeutics (Zhongshan) Limited, priority 2022, published 2026).

Series [1] in a line: Saturation solubility of API in ointment bases. Type of series: physicochemical. On the procedure: Experimental steps: About 340 mg of API was added gradually and slowly to about 5 g of PEG400 (in a water bath at 40° C.), and the mixture was dissolved by magnetic stirring. The orange-red mixture was gradually viscous and could no longer be stirred. About 7 g of PEG400 was added gradually and stirred for another 20 min. The resulting mixture was divided into two portions, one portion was maintained in a water bath at 40° C., and the other portion was cooled to room temperature. Both portions were filtered through a PES water membrane (13 mm, 0.45 μm), and the filtrates were collected for content analysis.
About 400 mg of API was added gradually and slowly to about 5 g of propylene glycol (in a water bath at 40° C.), and the mixture was stirred for dissolution. The orange-red mixture was gradually viscous and could no longer be stirred. About 7 g of PEG400 was added gradually and stirred for another 20 min. The resulting mixture was divided into two portions, one portion was maintained in a water bath at 40° C., and the other portion was cooled to room temperature. Both portions were filtered through a PES water membrane (13 mm, 0.45 μm), and the filtrates were collected for content analysis.

For series [2] the following is noted: cited from earlier work.

Molecules are shown by their SMILES.

With `CO[C@H]1/C=C/O[C@@]2(C)Oc3c(C)c(O)c4c(O)c(c(/C=N/N5CCC(N(C)C6([C@@H]7CCN(c8c(F)cn9c(=O)c(C(=O)O)cc(C%10CC%10)c9c8C)C7)CC6)CC5)c(O)c4c3C2=O)NC(=O)/C(C)=C\C=C\[C@H](C)[C@H](O)[C@@H](C)[C@@H](O)[C@@H](C)[C@H](OC(C)=O)[C@@H]1C` [API, rifamycin-quinolizinone coupling molecule], the Saturation solubility in series [1] (in PEG400, 40° C.) is reported as 23.79 mg/g; in series [1] (in PEG400, room temperature) it was 5.80 mg/g; in series [1] (in propylene glycol, 40° C.), 0.65 mg/g; in series [1] (in propylene glycol, room temperature), 0.15 mg/g. In series [2], the “Solubility in dichloromethane, polyethylene glycol 400, and dimethyl sulfoxide” value is reported as “soluble”. Moreover, in series [2], the “Solubility in ethanol, methanol, and diethyl ether” value is “almost insoluble”. Also, the Water solubility entry in series [2] was “low”. The “Oxidation on exposure to air” value in series [2] (phenol form converts to quinone form) is “easily to be oxidized”. Further, the “pH of maximum water solubility” value in series [2] (water solubility is pH-dependent, relatively low at low pH) was 10.
